For series [1], the system named is purified rat peritoneal mast cells. The format is cell-based. As to conditions: for maximal inhibition of compound 48/80 induced histamine secretion: 600 μg/ml peptide, compound 48/80 concentration not given; for Inhibitor (extent of inhibition of histamine secretion from mast cells): Table 9. How it is done: 37° C. […] Each data point represents the average of duplicate measurements. The spontaneously released histamine was subtracted.
First, the effect of compound 48/80 on exocytosis from intact mast cells was determined. […] Histamine release was determined and is presented as the net secretion that is % of the total cellular histamine following subtraction of the spontaneously released histamine. Half-maximal release was obtained at 0.1 μg/ml while maximal release was obtained at 1-10 μg/ml. Accordingly, in order to analyze the potential of each peptide to block histamine secretion, histamine secretion was induced with 5 μg/ml compound 48/80, a concentration that induces a maximal histamine release, while the cells were incubated in the presence of increasing concentrations of each peptide.
In order to investigate the ability of these peptides to block allergen-induced exocytosis, the peptides were examined for their ability to block compound 48/80 induced histamine secretion from intact mast cells in vitro. Mast cells were incubated with different concentrations of each peptide, followed by induction of histamine secretion by compound 48/80.

For series [2] the test system is unchanged. The series can be described thus: Histamine secretion from intact mast cells incubated with peptide alone (secretagogue side effect). As to conditions: for Secretagogue (histamine secretion following incubation of mast cell with different concentrations of each peptide): no allergen; for histamine secretion from mast cells on incubation with increasing concentrations of peptide alone: no additional allergen.
Experimental: Mast cells from the peritoneal cavity of C.R rats were isolated in Tyrode buffer (137 mM NaCl, 2.7 mM KC1, 1 mM MgCl2, 0.4 mM NaH2PO4, 20 mM Hepes, 1.0 mM CaCl2, 5.6 mM glucose, 1 mg/ml BSA, pH 7.2) and purified over a Ficoll gradient. A suspension of washed peritoneal cells was placed over a cushion of 30% Ficoll 400 (Pharmacia Biotech.) in buffered Saline containing 0.1% BSA; and centrifuged at 150O×g for 15 min. The purity of mast cells recovered from the bottom of the tube was >90%, as assessed by toluidine blue staining.
Purified mast cells (duplicated of 10^5 cells/0.5 ml) were incubated in Tyrode buffer with buffer or with desired concentrations of the indicated peptide for 2 h. at. 37° C. Histamine secretion was subsequently stimulated by the indicated concentration of compound 48/80 (Sigma) dissolved in Tyrode buffer. Incubation with compound 48/80 was carried out for 20 mm.in at 37° C. The reaction was terminated by placing the tubes on ice. The cells were sedimented by centrifugation at 150×g for 5 mm.in and the supernatants were collected. The amount of histamine release was determined as previously described (Aridor et al., 1990). Briefly, cell pellets were lysed using 0.1N NaOH and the volume of each sample was adjusted to 0.5 ml by H2O. Histamine content was assayed using the o-phtalaldehyde (OPT) fluorimetric method (Shore et al., 1959). Aliquots of 0.4 ml from the supernatants and cell lysates were incubated with 1.6 ml H20, 0.4 ml 1N NaOH and 0.1 ml of 10 mg/l ml OPT in methanol, for 4 min at room temperature. The reaction was terminated by the addition of 0.2 ml 3N HCl. Samples were centrifuged at 150×g for 5 min. and 0.2 ml samples were transferred to a 96 well plate. The histamine spectrofluorometric assay was run in microplates using a microplates reader (FL-600, Biotek instruments Winooski, Vt., USA). Samples were excited by light at 340 nm and read at 440 nm. Histamine release was calculated as the percentage of total histamine content (supernatant/pellet+supernatant) in each sample. Each data point represents the average of duplicate measurements. The spontaneously released histamine was subtracted.

For series [3], the system named is abdominal skin of C.R rats. The series can be described thus: Rat skin test: intradermal injection of peptide, then intradermal compound 48/80 or vehicle, wheal area. Type of series: in vivo. The note with it: for Mean Wheal Area ± STD, Compound 48/80: 0.5 hour before allergic induction; for Mean Wheal Area ± STD, Vehicle: 0.5 hour before, vehicle instead of compound 48/80. How it is done:
The hair of the abdominal area of C.R rats was carefully removed with an electric clipper and a depilatory cream. In each animal the abdominal area was divided to six equal zones that were marked by pen. Each zone was either subjected to peptide treatment or served as a control. In the first set of experiments, the peptide was topically applied as follows: 36 μl of peptide solution at the indicated concentration (dissolved in 72% DMSO in saline) was applied on desired abdominal area. In the second set of experiments, the peptide was injected intradermally as follows: 20 μl of peptide solution at different concentrations (dissolved in 10% DMSO in saline) was injected intradermally to an indicated abdominal area using a 27-gauge sterile needle.
Skin tests were performed 0.5, 1 or 2 hours following application of the peptide. Skin tests were performed by injecting intradermally 20 μl of the allergen (0.1 mg/ml compound 48/80 dissolved in saline) or saline alone, into the center of each marked area on the abdominal skin using a 27-gauge sterile needle. The allergic response was monitored by outlining with a marker the wheals which developed in response to allergen or saline treatment.
To quantitate the skin test results, the marker signs were transferred onto paper with scotch tape. The areas of the wheals were outlined and calculated by a computerized planimeter (Hewlett-Packard), as previously described (Sussman et al., 1982).
Tables 10-16 presents the mean areas of the wheals, which developed in response to intradermal injection of each of the tested peptides, followed by either compound 48/80 or DDW injection applied after 0.5 or 1 hour. Two doses were tested for each peptide-20 and 200 μg (injection of 20 μl from a stock solution of 1 mg/ml or 10 mg/m respectively).
Skin tests on rats using compound 48/80 as the allergen assessed the ability of the peptides of the present invention to block allergic cutaneous reactions. The abdominal skin of the rats was subjected to peptide (indicated concentrations are listed in Tables 17A-17B below) or vehicle treatment (intradermal injection); the allergic response was induced by intradermal injection of compound 48/80 at various times; and the allergic response was quantified by calculating the area of the resultant allergic wheals.

Where [4] appears, read: incubation with different concentrations of each peptide, then induction of the allergic reaction.

From patent publication US20070009544A1, “Anti-allergic complex molecules” (priority 1999, published 2007) come the findings set out here.

Values after ≈ are worked out from the molar mass of the structure shown. Numbered stars: 1 amine (or outer) side, 2 acyl side, 3 side chain; on linkers, the order of the positions; unused ones are H or OH. Square brackets hold non-standard residues; d marks the D form. Ends that are not written are not given here. Peptide text beside a SMILES is read from it. Suc = O=C(CCC(=O)[*:2])[*:1]; Sar = CNCC(=O)O

On to `CC(C)C[C@H](NC(=O)CNC(=O)[C@H](CS)NC(=O)[C@H](CC(=O)O)NC(=O)[C@H](CCCCN)NC(=O)[C@H](CC(C)C)NC(=O)[C@H](CC(N)=O)NC(=O)[C@H](CCC(=O)O)NC(=O)[C@H](CCCCN)NC(=O)[C@@H]1CCCN1C(=O)[C@H](C)NC(=O)[C@H](CC(C)C)NC(=O)[C@H](CC(C)C)NC(=O)[C@H](C)NC(=O)[C@H](CC(C)C)NC(=O)[C@H](CC(C)C)NC(=O)[C@@H](NC(=O)[C@H](C)NC(=O)[C@@H]1CCCN1C(=O)[C@H](CC(C)C)NC(=O)[C@H](CC(C)C)NC(=O)[C@H](C)NC(=O)[C@@H](NC(=O)[C@H](C)NC(=O)[C@H](C)NC(=O)CCC(=O)O)C(C)C)C(C)C)C(=O)N[C@@H](Cc1ccccc1)C(=O)O` [Peptide 5-Suc] (Suc-AAVALLPAVLLALLAPKENLKDCGLF-OH; C-terminus assumed), for which the “Inhibitor (degree of inhibition of histamine secretion from mast cells)” value in series [1] (Table 1, incubation with different concentrations of each peptide, then induction of the allergic reaction) is recorded as “− (− No inhibition)”. In addition, in series [2] (Table 1, peptide alone), the “Secretagogue (histamine secretion following incubation of mast cell with different concentrations of each peptide)” value was “+”. Further, the “histamine secretion from mast cells on incubation with increasing concentrations of peptide alone” value in series [2] was “induced histamine secretion from mast cells in a concentration dependent manner”.
With `CC(C)C[C@H](NC(=O)CNC(=O)[C@H](CS)NC(=O)[C@H](CCC(=O)O)NC(=O)[C@H](CCCCN)NC(=O)[C@H](CC(C)C)NC(=O)[C@H](CC(N)=O)NC(=O)[C@H](CC(N)=O)NC(=O)[C@H](CCCCN)NC(=O)CN(C)C(=O)[C@H](C)NC(=O)[C@H](CC(C)C)NC(=O)[C@H](CC(C)C)NC(=O)[C@H](C)NC(=O)[C@H](CC(C)C)NC(=O)[C@H](CC(C)C)NC(=O)[C@@H](NC(=O)[C@H](C)NC(=O)[C@@H]1CCCN1C(=O)[C@H](CC(C)C)NC(=O)[C@H](CC(C)C)NC(=O)[C@H](C)NC(=O)[C@@H](NC(=O)[C@H](C)NC(=O)[C@H](C)NC(=O)CCC(=O)O)C(C)C)C(C)C)C(=O)N[C@@H](Cc1ccc(O)cc1)C(=O)O` [WALL008] (Suc-AAVALLPAVLLALLA[Sar]KNNLKECGLY-OH; C-terminus assumed), in series [1], the “IC50, compound 48/80 induced histamine secretion” value was determined as 220 µg/mL (≈ 79.9 µM) and the “maximal inhibition of compound 48/80 induced histamine secretion” value turned out to be 98.7%. Also, in series [1] (setting [4]), the “Inhibitor (extent of inhibition of histamine secretion from mast cells)” value is given as “+++ (+++ Potent inhibitor (≧80% inhibition))”. The “block of compound 48/80 induced allergic reaction in vivo, rat skin” value in series [3] (intradermal peptide) is “effectively block the allergic response in vivo”. In addition, in series [3] (intradermal peptide 1 mg/ml), the “Mean Wheal Area ± STD, Compound 48/80” value is 104.1 ± 18.5 (n = 4) mm^2 and the “Mean Wheal Area ± STD, Vehicle” value is 79.9 ± 22.3 (n = 4) mm^2. Moreover, in series [3] (intradermal peptide 10 mg/ml), the “Mean Wheal Area ± STD, Compound 48/80” value is on record as 73.7 ± 12.2 (n = 4) mm^2 and the “Mean Wheal Area ± STD, Vehicle” value is 72.8 ± 13.6 (n = 4) mm^2. In series [3] (intradermal peptide 0.5 hour before allergic induction), the “reduction of compound 48/80 induced allergic reaction” value is on record as “significant inhibition”. Also, in series [2] (Table 9, peptide alone), the “Secretagogue (histamine secretion following incubation of mast cell with different concentrations of each peptide)” value was “−”. Also, the “histamine secretion from mast cells on incubation with increasing concentrations of peptide alone” value in series [2] is given as “did not result in histamine secretion”. Further, in series [2] (peptide alone, increasing concentrations), the “basal level of histamine secretion compared to control cells” value is on record as “inhibition of the basal level of histamine secretion”.
In the case of `CC(C)C[C@H](NC(=O)CNC(=O)[C@H](CS)NC(=O)[C@H](CCC(=O)O)NC(=O)[C@H](CCCCN)NC(=O)[C@H](CC(C)C)NC(=O)[C@H](CC(N)=O)NC(=O)[C@H](CO)NC(=O)[C@H](CCCCN)NC(=O)[C@@H]1CCCN1C(=O)[C@H](C)NC(=O)[C@H](CC(C)C)NC(=O)[C@H](CC(C)C)NC(=O)[C@H](C)NC(=O)[C@H](CC(C)C)NC(=O)[C@H](CC(C)C)NC(=O)[C@@H](NC(=O)[C@H](C)NC(=O)[C@@H]1CCCN1C(=O)[C@H](CC(C)C)NC(=O)[C@H](CC(C)C)NC(=O)[C@H](C)NC(=O)[C@@H](NC(=O)[C@H](C)NC(=O)[C@H](C)NC(=O)CCC(=O)O)C(C)C)C(C)C)C(=O)N[C@@H](Cc1ccc(O)cc1)C(=O)O` [WALL011] (Suc-AAVALLPAVLLALLAPKSNLKECGLY-OH; C-terminus assumed), in series [1], the “IC50, compound 48/80 induced histamine secretion” value stood at 160 µg/mL (≈ 58.1 µM) and the “maximal inhibition of compound 48/80 induced histamine secretion” value is on record as 87%. The “Inhibitor (extent of inhibition of histamine secretion from mast cells)” value in series [1] (setting [4]) is reported as “+++ (+++ Potent inhibitor (≧80% inhibition))”. Besides, the “Secretagogue (histamine secretion following incubation of mast cell with different concentrations of each peptide)” value in series [2] (Table 9, peptide alone) is reported as “−”. Also, in series [2], the “histamine secretion from mast cells on incubation with increasing concentrations of peptide alone” value is on record as “did not result in histamine secretion”. Besides, in series [2] (peptide alone at 400-600 μg/ml), the “basal level of histamine secretion compared to control cells” value is on record as “minor inhibition of the basal level of histamine secretion”.
In the case of AAVALLPAVLLALLAAKNNLKECGLY [WALL004], the “histamine secretion from mast cells, peptide alone” value in series [2] (especially at a peptide concentration exceeding 200 μg/ml) is recorded as “moderate histamine secretion”.
On to AAVALLPAVLLALLAPKENLKDCGLF [Peptide 5], for which, in series [2] (Table 1, peptide alone), the “Secretagogue (histamine secretion following incubation of mast cell with different concentrations of each peptide)” value is “−”.
Regarding AAVALLPAVLLALLAPKNNLKDCGLF [Peptide 5m], the “Secretagogue (histamine secretion following incubation of mast cell with different concentrations of each peptide)” value in series [2] (Table 1, peptide alone) was “+”. Also, the “histamine secretion from mast cells on incubation with increasing concentrations of peptide alone” value in series [2] was “induced histamine secretion from mast cells in a concentration dependent manner”.
In the same order, the values of AAVALLPAVLLALLAPKNNLKESGLY [Peptide 25] are “+” and “induced histamine secretion from mast cells in a concentration dependent manner”.
For the compound AAVALLPAVLLALLAPKQNLKECGLY [WALL006], the “IC50, compound 48/80 induced histamine secretion” value in series [1] turned out to be 560 µg/mL. In series [2] (Table 9, peptide alone), the “Secretagogue (histamine secretion following incubation of mast cell with different concentrations of each peptide)” value is “−”. The “histamine secretion from mast cells on incubation with increasing concentrations of peptide alone” value in series [2] is recorded as “did not result in histamine secretion”.
As for AAVALLPAVLLALLAPLKDCGLF [Peptide 21], in series [2] (at higher doses of 400 and 600 μg/ml), the “histamine secretion from mast cells, peptide alone” value is “induced some histamine secretion”.
Regarding AAVALLPAVLLALLAPLKECGLY [Peptide 20], in series [2] (Table 1, peptide alone), the “Secretagogue (histamine secretion following incubation of mast cell with different concentrations of each peptide)” value is “−”. Further, the “histamine secretion from mast cells on incubation with increasing concentrations of peptide alone” value in series [2] is reported as “did not induce histamine secretion”.
Consider AAVALLPAVLLALLAPYLGCEKLNNK [WALL023], for which, in series [2] (600 μg/ml peptide), the “histamine secretion from mast cells, peptide alone” value was “did not result in histamine secretion”. Moreover, the “Secretagogue (histamine secretion following incubation of mast cell with different concentrations of each peptide)” value in series [2] (Table 9, peptide alone) was “−”.
As for “KAAVALLPAVLLALLAPKNNLKDCGLF [Peptide 12]”, the “Secretagogue (histamine secretion following incubation of mast cell with different concentrations of each peptide)” value in series [2] (Table 1, peptide alone) is recorded as “+”. Moreover, in series [2], the “histamine secretion from mast cells on incubation with increasing concentrations of peptide alone” value was “induced histamine secretion from mast cells in a concentration dependent manner”.
As for “KAAVALLPAVLLALLAPKNNLKECGLY [Peptide 13]”, the “Secretagogue (histamine secretion following incubation of mast cell with different concentrations of each peptide)” value in series [2] (Table 1, peptide alone) was “+”. Besides, the “histamine secretion from mast cells on incubation with increasing concentrations of peptide alone” value in series [2] is given as “induced histamine secretion from mast cells in a concentration dependent manner”.
For RQPKIWFPNRRKPWKKKENLKDCGLF [Peptide 6], the “histamine secretion from mast cells on incubation with increasing concentrations of peptide alone” value in series [2] was “induced histamine secretion from mast cells in a concentration dependent manner”.
Same read-out and setting: as for RQPKIWFPNRRKPWKKKNNLKECGLY [Peptide 3], the entry is “induced histamine secretion from mast cells in a concentration dependent manner”.
For VTVLALGALAGVGVGKENLKDCGLF [Peptide 4], the “stimulatory effect on histamine secretion” value in series [2] (peptide alone, concentration range of up to 400 p.g/ml (FIG. 1A)) is listed as “hardly any stimulatory effect”.
